Like-named read-outs stand apart in the source and are kept apart here.
Experiments:
human orexin-2 receptor = human orexin-2 receptor (Homo sapiens (Human), UniProt O43614); experiment: Intracellular calcium measurement (FLIPR), CHO cells expressing human orexin-2 receptor, 3 nM orexin-A; assay type: cell-based; conditions: read-out: IC50 OX2
Outline: (§1)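 CHO transfectants were dye-loaded (fluo-4 AM, probenecid) and exposed to antagonist for 120 min ahead of agonist.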

orexin-1 = orexin-1 (Homo sapiens (Human), UniProt O43613); experiment: Intracellular calcium measurement (FLIPR), CHO cells expressing human orexin-1 receptor, 3 nM orexin-A; assay type: cell-based; conditions: read-out: IC50 OX1
orexin-1, sequence (O43613 whole entry): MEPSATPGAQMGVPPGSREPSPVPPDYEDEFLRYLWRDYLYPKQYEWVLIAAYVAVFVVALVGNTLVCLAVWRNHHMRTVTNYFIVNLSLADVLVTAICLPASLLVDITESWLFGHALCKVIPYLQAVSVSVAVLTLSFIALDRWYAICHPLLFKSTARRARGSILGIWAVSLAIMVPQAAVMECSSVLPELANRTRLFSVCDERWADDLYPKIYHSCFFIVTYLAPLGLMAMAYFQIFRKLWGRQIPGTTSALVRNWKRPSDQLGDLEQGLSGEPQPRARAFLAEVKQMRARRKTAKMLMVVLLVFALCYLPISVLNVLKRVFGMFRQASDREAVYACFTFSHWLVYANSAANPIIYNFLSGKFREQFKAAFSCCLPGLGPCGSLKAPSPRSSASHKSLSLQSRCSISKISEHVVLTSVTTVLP
Outline: as §1

[1] = CHO cells expressing human orexin-2 receptor, FLIPR, 3 nM orexin-A, geometric mean if determined several times
[2] = CHO cells expressing human orexin-1 receptor, FLIPR, 3 nM orexin-A, geometric mean if determined several times

human orexin-2 receptor, sequence (O43614 whole entry): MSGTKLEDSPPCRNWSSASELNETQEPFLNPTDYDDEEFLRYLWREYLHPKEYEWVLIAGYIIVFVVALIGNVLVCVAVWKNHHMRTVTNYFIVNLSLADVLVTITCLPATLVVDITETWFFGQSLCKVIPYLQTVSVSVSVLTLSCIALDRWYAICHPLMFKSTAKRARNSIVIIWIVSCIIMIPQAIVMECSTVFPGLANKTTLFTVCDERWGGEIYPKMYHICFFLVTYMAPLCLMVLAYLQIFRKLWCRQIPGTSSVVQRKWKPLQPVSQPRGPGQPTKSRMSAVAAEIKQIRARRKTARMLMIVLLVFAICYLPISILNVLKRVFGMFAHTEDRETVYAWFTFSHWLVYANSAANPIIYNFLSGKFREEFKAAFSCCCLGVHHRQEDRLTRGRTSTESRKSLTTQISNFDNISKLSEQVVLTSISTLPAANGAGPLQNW

SMILES	IC50 (human orexin-2 receptor; [1]) [nM]	IC50 (orexin-1; [2]) [nM]	IC50 (human orexin-2 receptor) [nM]	IC50 (orexin-1) [nM]
CCc1cnc(-c2noc([C@@H]3CCCN3C(=O)c3cc(C)ccc3-n3nccn3)n2)cc1C [compound 61, {(S)-2-[3-(5-Ethyl-4-methyl-pyridin-2-yl)-[1,2,4]oxadiazol-5-yl]-pyrrolidin-1-yl}-(5-methyl-2-[1,2,3]triazol-2-yl-phenyl)-methanone]	271	1480		
Cc1c(Cl)cccc1-c1noc([C@@H]2CCCN2C(=O)c2ccccc2-n2nccn2)n1 [compound 93]	28	399		
COc1cc(C(=O)N2CCC[C@H]2c2nnc(-c3cccc(Cl)c3C)o2)c(-n2nccn2)cc1C [compound 445]		157	9	
Cc1cc(-n2nccn2)c(C(=O)N2CCC[C@H]2c2nc(-c3ccccc3OC(F)(F)F)no2)cc1Cl [compound 299]	19	25		
CCOc1c(F)cccc1-c1nc([C@@H]2CCCN2C(=O)c2cc(OC)ccc2-n2nccn2)no1 [compound 326, {(S)-2-[5-(2-Ethoxy-3-fluoro-phenyl)-[1,2,4]oxadiazol-3-yl]-pyrrolidin-1-yl}-(5-methoxy-2-[1,2,3]triazol-2-yl-phenyl)-methanone]	3	27		
COc1ccc(C(=O)N2CCC[C@H]2c2nc(-c3cccc(Cl)c3C)no2)c(-n2nccn2)c1 [compound 118]			48	260
Cc1c(Cl)cccc1-c1noc([C@@H]2CCCN2C(=O)c2cc(C#N)ccc2-n2nccn2)n1 [compound 276]	243	762		
Cc1ccc(C(=O)N2CCC[C@@]2(C)c2nnc(-c3ccccc3OC(F)(F)F)[nH]2)c(-n2nccn2)c1 [compound 543, (4-Methyl-2-[1,2,3]triazol-2-yl-phenyl)-{(S)-2-methyl-2-[5-(2-trifluoromethoxy-phenyl)-4H-[1,2,4]triazol-3-yl]-pyrrolidin-1-yl}-methanone]	20	10		
COc1ccc(C)cc1-c1nc([C@@H]2CCCN2C(=O)c2ccc(Cl)cc2-n2nccn2)no1 [compound 381]	28	136		
O=C(c1cc(Cl)ccc1-n1nccn1)N1CCC[C@H]1c1nc(-c2ccccc2C(F)(F)F)no1 [compound 179]	189			371
Cc1cccc(-c2oc(C)nc2C(=O)N2CCC[C@H]2c2nc(-c3ccccc3OC(F)(F)F)no2)c1 [compound 139, (2-Methyl-5-m-tolyl-oxazol-4-yl)-{(S)-2-[3-(2-trifluoromethoxy-phenyl)-[1,2,4]oxadiazol-5-yl]-pyrrolidin-1-yl}-methanone]	62	124		
O=C(c1cc(Cl)ccc1-n1nccn1)N1CCC[C@H]1c1nnc(-c2ccccc2OC(F)(F)F)[nH]1 [compound 504]		104	5	
CCOc1ncccc1-c1noc([C@@H]2CCCN2C(=O)c2ccc(C)c(C)c2-n2nccn2)n1 [compound 273, (3,4-Dimethyl-2-[1,2,3]triazol-2-yl-phenyl)-{(S)-2-[3-(2-ethoxy-pyridin-3-yl)-[1,2,4]oxadiazol-5-yl]-pyrrolidin-1-yl}-methanone]	134	148		
CCOc1c(F)cccc1-c1nnc([C@@H]2CCCN2C(=O)c2cc(C)ccc2-n2nccn2)o1 [Example 449, {(S)-2-[5-(2-Ethoxy-3-fluoro-phenyl)-[1,3,4]oxadiazol-2-yl]-pyrrolidin-1-yl}-(5-methyl-2-[1,2,3]triazol-2-yl-phenyl)-methanone]	236	280		
Cc1ccc(-n2nccn2)c(C(=O)N2CCC[C@H]2c2nc(-c3ccccc3OC(F)(F)F)no2)c1F [compound 145, (2-Fluoro-3-methyl-6-[1,2,3]triazol-2-yl-phenyl)-{(S)-2-[3-(2-trifluoromethoxy-phenyl)-[1,2,4]oxadiazol-5-yl]-pyrrolidin-1-yl}-methanone]	15	19		
Cc1ncc(C(=O)N2CCC[C@H]2c2nc(-c3cccc(Cl)c3C)no2)c(-c2cccc(Cl)c2)n1 [compound 127]		581	125	
O=C(c1ccccc1-n1nccn1)N1CCC[C@H]1c1nc(-c2ccccc2OC(F)(F)F)no1 [compound 141, (2-[1,2,3]Triazol-2-yl-phenyl)-{(S)-2-[3-(2-trifluoromethoxy-phenyl)-[1,2,4]oxadiazol-5-yl]-pyrrolidin-1-yl}-methanone]	29	59		
Cc1cccc(-c2oc(C)nc2C(=O)N2CCC[C@H]2c2nc(-c3cccc(Cl)c3C)no2)c1 [compound 91]	91	104		
Cc1ccc(-c2ccccn2)c(C(=O)N2CCC[C@H]2c2nc(-c3ccccc3OC(F)F)no2)c1 [compound 191, {(S)-2-[3-(2-Difluoromethoxy-phenyl)-[1,2,4]oxadiazol-5-yl]-pyrrolidin-1-yl}-(5-methyl-2-pyridin-2-yl-phenyl)-methanone]	27	119		
O=C(c1ccccc1-n1nccn1)N1CCC[C@H]1c1nc(-c2ccccc2OC(F)F)no1 [compound 185, {(S)-2-[3-(2-Difluoromethoxy-phenyl)-[1,2,4]oxadiazol-5-yl]-pyrrolidin-1-yl}-(2-[1,2,3]triazol-2-yl-phenyl)-methanone]	75	523		
Cc1cccc(-c2sc(C)nc2C(=O)N2CCC[C@H]2c2nc(-c3cccc(Cl)c3C)no2)c1 [compound 126]	118	221		
O=C(c1cccc(F)c1-n1nccn1)N1CCC[C@H]1c1nc(-c2ccccc2OC(F)(F)F)no1 [compound 165, (3-Fluoro-2-[1,2,3]triazol-2-yl-phenyl)-{(S)-2-[3-(2-trifluoromethoxy-phenyl)-[1,2,4]oxadiazol-5-yl]-pyrrolidin-1-yl}-methanone]	79	286		
CCOc1c(F)cccc1-c1noc([C@@H]2CCCN2C(=O)c2cc(OC)c(C)cc2-n2nccn2)n1 [compound 291, {(S)-2-[3-(2-Ethoxy-3-fluoro-phenyl)-[1,2,4]oxadiazol-5-yl]-pyrrolidin-1-yl}-(5-methoxy-4-methyl-2-[1,2,3]triazol-2-yl-phenyl)-methanone]	5	21		

Now from value to compound, other results behind:

IC50 (human orexin-2 receptor; [1]) [nM]	IC50 (orexin-1; [2]) [nM]	SMILES	IC50 (human orexin-2 receptor) [nM]	IC50 (orexin-1) [nM]
18	18	COc1ccccc1-c1cnc([C@@H]2CCCN2C(=O)c2cc(C)ccc2-n2nccn2)[nH]1 [Example 516, {(S)-2-[5-(2-Methoxy-phenyl)-1H-imidazol-2-yl]-pyrrolidin-1-yl}-(5-methyl-2-[1,2,3]triazol-2-yl-phenyl)-methanone]		
32	282	Cc1ccc(-n2nccn2)c(C(=O)N2CCC[C@H]2c2nc(-c3cccc(OC(F)(F)F)c3)no2)c1 [compound 270, (5-Methyl-2-[1,2,3]triazol-2-yl-phenyl)-{(S)-2-[3-(3-trifluoromethoxy-phenyl)-[1,2,4]oxadiazol-5-yl]-pyrrolidin-1-yl}-methanone]		
8	63	Cc1ccc(-n2nccn2)c(C(=O)N2CCC[C@H]2c2nc(-c3cc(C)ccc3C)no2)c1 [compound 84, {(S)-2-[3-(2,5-Dimethyl-phenyl)-[1,2,4]oxadiazol-5-yl]-pyrrolidin-1-yl}-(5-methyl-2-[1,2,3]triazol-2-yl-phenyl)-methanone]		
207	258	Cc1ccc(-n2nccn2)c(C(=O)N2CCC[C@H]2c2noc(-c3ccccc3)n2)c1 [Example 302, (5-Methyl-2-[1,2,3]triazol-2-yl-phenyl)-[(S)-2-(5-phenyl-[1,2,4]oxadiazol-3-yl)-pyrrolidin-1-yl]-methanone]		
92	658	Cc1ccc(-n2nccn2)c(C(=O)N2CCC[C@H]2c2nc(-c3cccc4[nH]ccc34)no2)c1 [compound 39, {(S)-2-[3-(1H-Indol-4-yl)-[1,2,4]oxadiazol-5-yl]-pyrrolidin-1-yl}-(5-methyl-2-[1,2,3]triazol-2-yl-phenyl)-methanone]		
124	49	COc1ccccc1-c1nnc([C@@H]2CCCN2C(=O)c2cc(C)ccc2-n2nccn2)[nH]1 [Example 464, {(S)-2-[5-(2-Methoxy-phenyl)-4H-[1,2,4]triazol-3-yl]-pyrrolidin-1-yl}-(5-methyl-2-[1,2,3]triazol-2-yl-phenyl)-methanone]		
37	86	Cc1cc(C(=O)N2CCC[C@H]2c2nc(-c3ccccc3C(F)(F)F)no2)c(-n2nccn2)cc1C [compound 181, (4,5-Dimethyl-2-[1,2,3]triazol-2-yl-phenyl)-{(S)-2-[3-(2-trifluoromethyl-phenyl)-[1,2,4]oxadiazol-5-yl]-pyrrolidin-1-yl}-methanone]		
17	60	O=C(c1ccccc1-c1ccccc1)N1CCC[C@H]1c1nc(-c2ccccc2OC(F)(F)F)no1 [compound 135, Biphenyl-2-yl-{(S)-2-[3-(2-trifluoromethoxy-phenyl)-[1,2,4]oxadiazol-5-yl]-pyrrolidin-1-yl}-methanone]		
10	62	COc1c(Cl)cccc1-c1nnc([C@@H]2CCCN2C(=O)c2ccc(C)cc2-n2nccn2)[nH]1 [compound 489, {(S)-2-[5-(3-Chloro-2-methoxy-phenyl)-4H-[1,2,4]triazol-3-yl]-pyrrolidin-1-yl}-(4-methyl-2-[1,2,3]triazol-2-yl-phenyl)-methanone]		
6	58	Cc1cc(C)cc(-c2noc([C@@H]3CCCN3C(=O)c3cc(C)ccc3-n3nccn3)n2)c1 [compound 11, {(S)-2-[3-(3,5-Dimethyl-phenyl)-[1,2,4]oxadiazol-5-yl]-pyrrolidin-1-yl}-(5-methyl-2-[1,2,3]triazol-2-yl-phenyl)-methanone]		
1690	835	Cc1ccc(-n2nccn2)c(C(=O)N2CCC[C@H]2c2nnc(-c3cccc(Cl)c3)o2)c1 [Example 455, {(S)-2-[5-(3-Chloro-phenyl)-[1,3,4]oxadiazol-2-yl]-pyrrolidin-1-yl}-(5-methyl-2-[1,2,3]triazol-2-yl-phenyl)-methanone]		
